Test results published in US10151698B2, “Selection by compartmentalized screening” (Medical Research Council, priority 2003, dated 2018).

Tests used:
[1] = Compartmentalisation of small molecules in water-in-fluorocarbon emulsions (epifluorescence microscopy); type: physicochemical; conditions: water-in-perfluorooctyl bromide emulsions mixed by vortexing; 24 hours after mixing
Protocol: FIG. 3. Compartmentalisation of small molecules in water-in-fluorocarbon emulsions. Water-in-perfluorooctyl bromide emulsions were made containing texas red (1 mM) and calcein (1 mM) in the aqueous phase by homogenisation as described in example 9. The two emulsions were mixed by vortexing and imaged by epifluorescence microscopy after 24 hours. No exchange of texas-red (red fluorescence) and calcein (green fluorescence) between microdroplets could be observed.
Water-in-fluorocarbon emulsions containing 95% (v/v) perfluorooctyl bromide, 5% (v/v) phosphate buffered saline containing the molecule of interest in solution, and 2% (w/v) C8F17C11H22OP(O)[N(CH2CH2)2O]2 (F8H11DMP) as surfactant were formed essentially as (Sadtler et al., 1996) by extrusion (15 times) through 14 μm filters (Osmonics) or by homogenising for 5 min at 25,000 r.p.m. using an Ultra-Turrax T8 Homogenizer (IKA) with a 5 mm dispersing tool. Emulsions were made containing a series of small fluorescent molecules dissolved in the aqueous phase at concentrations from […] to 2 mM. These molecules, including calcein, texas red, fluorescein, coumarin 102, 7-hydroxycoumarin-3-carboxylic acid and 7-diethylamino-4-methyl coumarin (coumarin 1), had molecular weights from 203 to 625 Da and Log P values—calculated using SRC's Log Kow/KowWin Program (Meylan and Howard, 1995)—ranging from −0.49 to 4.09. […]

[2] = target: T1, human recombinant PTPIB, residues 1-322 (Homo sapiens, UniProt P18031); test: Screening for PTPIB inhibitors in water-in-oil emulsion microcapsules with fluorogenic substrate DiFMUP, multi-colour flow cytometry; type: biochemical; conditions: 100 μM compound, 37° C. for 30 min
T1 construct: human recombinant PTPIB, residues 1-322; purchased Biomol Research Laboratories, Inc
T1 sequence (P18031 1-322): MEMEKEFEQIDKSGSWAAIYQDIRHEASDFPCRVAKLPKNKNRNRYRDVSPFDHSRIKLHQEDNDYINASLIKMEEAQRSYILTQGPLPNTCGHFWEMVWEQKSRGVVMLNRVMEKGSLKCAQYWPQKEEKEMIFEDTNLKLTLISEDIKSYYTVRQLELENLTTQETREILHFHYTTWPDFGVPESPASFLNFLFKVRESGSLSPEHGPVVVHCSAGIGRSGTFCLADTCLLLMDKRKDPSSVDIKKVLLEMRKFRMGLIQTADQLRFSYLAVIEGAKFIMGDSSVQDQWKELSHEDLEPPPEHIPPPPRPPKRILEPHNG
Protocol: The syringes are fitted into the openings on both sides of the filter holder of the extruder. The compound mix is forced through the filter holder into the alternate syringe containing the decane/surfactant mix and directly forced back into the original syringe to complete one round of extrusion. In total, 7.5 rounds of extrusion are completed. The filled syringe is removed from the extruder and emptied into a 1.7 ml Axygen tube (# MCT-175-C, Axygen Scientific, Inc., Union City, Calif., USA).
The two emulsions are mixed by vortexing in ratios varying from 1:1000 to 1:1 (compound 2 emulsion: hydrocinnamic acid emulsion) and incubated at 37° C. for 30 min. Inhibitors reduce the amount of non-fluorescent substrate (DiFMUP) converted to the dephosphorylated product (DiFMU; excitation/emmission maxima 358/452 nm; blue fluorescence). […]
The double emulsions are then analysed by multi-colour flow cytometery using a MoFlo (Cytomation) flow cytometer. […]
50 μl of each of the compound mixtures is added sequentially to a solution of 1% (w/v) Span 60 and 1% (w/v) cholesterol in decane, made and held at 37° C. as example 1, whilst homogenising at 25,000 r.p.m. using an Ultra-Turrax T8 Homogenizer (IKA) with a 5 mm dispersing tool. […] Inhibitors reduce the amount of non-fluorescent substrate (DiFMUP) converted to the dephosphorylated product (DiFMU; excitation/emmission maxima 358/452 nm; blue fluorescence). […]

[3] = target: T1, human recombinant PTPIB, residues 1-322; test: Screening for PTPIB inhibitors using microcapsules in microfluidic systems (DiFMUP, epifluorescence microscope); type: biochemical; conditions: Example 5; 100 μM compound solution; PTPIB 50 mU/ml; fused microcapsules run up to 2 min
Protocol: Microchannels are fabricated with rectangular cross-sections using rapid prototyping in poly(dimethylsiloxane) (PDMS) (McDonald and Whitesides, 2002) and rendered hydrophobic as (Song and Ismagilov, 2003). Syringe pumps were used to drive flows (Harvard Apparatus PHD 2000 Infusion pumps). For aqueous solutions, 50 μl Hamilton Gastight syringes (1700 series, TLL) with removeable needles of 27-gaugeare used with 30-gauge Teflon tubing (Weico Wire and Cable). For the carrier fluid, 1 ml Hamilton Gastight syringes (1700 series, TLL) are used with 30-gauge Teflon needles with one hub from Hamilton (Song and Ismagilov, 2003). The carrier fluid is 9% (v/v) C6F11C2H4OH in perfluorodecaline (PFD) (Song et al., 2003). All water-soluble reagents were dissolved in (25 mM HEPES, pH 7.4, 125 mM NaCl, 1 mM EDTA), a buffer compatible with PTPIB activity.
These three steams are continuously injected into a flow of water immiscible fluorocarbon carrier fluid (9% (v/v) C6FπC2H OH in PFD). Inlet channels for the aqueous solutions are […] wide and channel for PFD is 28 μm wide. […]
The channel immediately downstream of the point of droplet formation is winding with a peak to peak distance of 50 μm for a distance of 1 mm. […] Fluorescence of the microcapsules due to production of DiFMU (excitation/emmission maxima 358/452 nm; blue fluorescence) is measured using an epifluorescence microscope.

[4] = target: T2, PTPIB (Homo sapiens, UniProt P18031); conditions: Johnson et al., 2002; cited from earlier work
T2 sequence (P18031 1-435): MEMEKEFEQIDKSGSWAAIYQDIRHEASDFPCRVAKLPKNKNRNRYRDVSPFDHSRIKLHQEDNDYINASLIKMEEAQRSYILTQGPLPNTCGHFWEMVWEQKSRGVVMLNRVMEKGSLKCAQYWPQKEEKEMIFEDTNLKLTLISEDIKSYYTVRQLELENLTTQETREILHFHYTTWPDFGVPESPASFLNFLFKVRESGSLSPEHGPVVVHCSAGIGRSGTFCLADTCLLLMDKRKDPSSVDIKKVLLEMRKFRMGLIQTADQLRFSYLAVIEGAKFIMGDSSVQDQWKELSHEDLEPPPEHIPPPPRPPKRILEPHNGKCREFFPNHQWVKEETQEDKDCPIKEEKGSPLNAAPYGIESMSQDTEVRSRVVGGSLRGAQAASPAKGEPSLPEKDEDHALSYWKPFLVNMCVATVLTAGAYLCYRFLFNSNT

exchange between microdroplets/compartments [1] | blue fluorescence of microcapsules (DiFMU from dephosphorylation of DiFMUP by PTPIB) ([2]; Example 1, two emulsions mixed 1:1000 to 1:1) | blue fluorescence of microcapsules (DiFMU from dephosphorylation of DiFMUP by PTPIB) ([2]; Example 2, mixtures added sequentially to one oil phase) | fluorescence of the microcapsules due to production of DiFMU [3] | Compound | PTPIB inhibitor or not [4]
No exchange |  |  |  | O=C(O)CN(CC(=O)O)Cc1cc2c(cc1O)Oc1cc(O)c(CN(CC(=O)O)CC(=O)O)cc1C21OC(=O)c2ccccc21 [calcein] | 
 | also show blue fluorescence | also show blue fluorescence | exhibiting blue fluorescence | O=C(O)CCc1ccccc1 [hydrocinnamic acid] | not a PTPIB inhibitor
No exchange |  |  |  | texas red | 
